Earlier results, collected in PMC11170107, “Development of a new hazard scoring system in primary neuronal cell cultures for drug-induced acute neuronal toxicity identification in early drug discovery” (Frontiers in Pharmacology, 2024).

Legend:
[1] = ref National library of medicine, Daylimed; cited from earlier work
[2] = WHO adverse drug reactions VigiBase; ref Kumlien and Lundberg, 2010; cited from earlier work
[3] = Supplementary Table S1; cited from earlier work
[4] = seizure ADR frequency in SIDER; ref Campillos et al., 2008; Kuhn et al., 2010; cited from earlier work

SMILES	FDA prescription information at therapeutic dose (Convulsion/ Seizure/Lower the seizure threshold/withdrawal) [1]	Percentage seizures of total number of ADRs [2]	Free Cmax highest [3]	SIDER ADR on-/off-label [4]
CC(=O)Nc1ccc(O)cc1 [Acetaminophen]	not found on label	0.4389%	540 nM	–
NC12CC3CC(CC(C3)C1)C2 [Amantadine]	–	–	2840 nM	–
CCN(CC)C(C)C(=O)c1ccccc1 (centres unmarked) [Amfepramone]	–	–	90 nM	–
Clc1ccc2c(c1)C(N1CCNCC1)=Nc1ccccc1O2 [Amoxapine]	on label	4.864%	10 nM	no frequency information
CC1(C)S[C@@H]2[C@H](NC(=O)[C@H](N)c3ccc(O)cc3)C(=O)N2[C@H]1C(=O)O [Amoxicillin]	on label	0.1648%	25830 nM	very rare, postmarketing
CC(N)Cc1ccccc1 (centres unmarked) [Amphetamine]	–	1.043%	–	–
CN(C)CCCN1c2ccccc2Sc2ccc(Cl)cc21 [Chlorpromazine]	On label	1.468%	54 nM	–
CN(C)CCCN1c2ccccc2CCc2ccc(Cl)cc21 [Clomipramine]	–	–	9 nM	–
CN1CCN(C2=Nc3cc(Cl)ccc3Nc3ccccc32)CC1 [Clozapine]	–	–	70 nM	–
COc1ccc2c3c1O[C@H]1[C@@H](O)C=C[C@H]4[C@@H](C2)N(C)CC[C@@]341 [Codeine]	–	–	880 nM	–
CN1CCN(C(c2ccccc2)c2ccccc2)CC1 [Cyclizine]	–	1.797%	105 nM	no frequency information
COc1ccc(Cl)cc1[C@]1(F)C(=O)Nc2cc(C(F)(F)F)ccc21 [Flindokalner]	–	–	340 nM	–
CN(C)CCCN1c2ccccc2CCc2ccccc21 [Imipramine]	On label	1.538%	53 nM	–
Cc1ccc(F)c(NC(=O)Nc2ccc(-c3cccc4[nH]nc(N)c34)cc2)c1 [Linifanib]	–	0%	–	–
O=C1N(c2ccccc2)c2ccccc2C1(Cc1ccncc1)Cc1ccncc1 [Linopirdine]	–	–	3000 nM	–
CNCCCC12CCC(c3ccccc31)c1ccccc12 [Maprotiline]	–	7.924%	73.3 nM	no frequency information
CC1CCN(CCCC(=O)c2ccc(F)cc2)CC1 [Melperone]	–	–	240 nM	–
COC(=O)C(c1ccccc1)C1CCCCN1 (centres unmarked) [Methylphenidate]	On label	–	165 nM	postmarketing
COc1c(N2C[C@@H]3CCCN[C@@H]3C2)c(F)cc2c(=O)c(C(=O)O)cn(C3CC3)c12 [Moxifloxacin]	–	–	8134 nM	–
CC(C)NCC(O)COc1cccc2ccccc12 (centres unmarked) [Propranolol]	–	–	120 nM	–
CC(C)(C)NCC(O)c1ccc(O)c(CO)c1 (centres unmarked) [Salbutamol]	–	0.3555%	56 nM	–
OC[C@@H](O)[C@@H](O)[C@H](O)[C@@H](O)CO [Sorbitol]	not found on label	0.6135%	–	no frequency information
CC(C)(C)C(O)/C=C/c1ccc2c(c1)OCO2 (centres unmarked) [Stiripentol]	–	–	670 nM	–
Cn1c(=O)c2[nH]cnc2n(C)c1=O [Theophylline]	–	4.2336%	26580 nM	–
C[C@@H]([C@@H](O)c1ccc(O)cc1)N1CCC(O)(c2ccccc2)CC1 [Traxoprodil (CP-101606), Traxoprodil]	–	–	94 nM	–
